Data as given in patent US11446287B2, “Compounds and methods for EP300 or CBP modulation and indications therefor” (Opna Immuno-Oncology SA, priority 2019, dated 2022).

Each compound was assayed against T1, Recombinant human BRD4 containing dual bromodomains (BRD4-BD12 (1-477)) (Homo sapiens, UniProt O60885) (assay: BRD4 Alphascreen binding assay).
T1 construct: Recombinant human BRD4 containing dual bromodomains (BRD4-BD12 (1-477)); made in house; host or cells: E. coli BL21-CodonPlus (DE3), modified pET vector
Outline: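 His-tagged human BRD4 tandem bromodomains (1-477, E. coli) incubated 1 h at room temperature with biotinylated tetra-acetylated H4 (1-21) peptide and compound in HEPES pH 7.5 buffer with 2 mM DTT. AlphaScreen signal read 30 min after adding beads (7.5 μg/ml); IC50 from four-parameter fit after normalization to controls.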

First: Cc1noc(C)c1-c1cnc2c(-c3ccc(C(=O)O)cc3F)c(C(F)(F)F)n([C@@H](C)c3ccccn3)c2c1 [P-0234, (S)-4-(6-(3,5-dimethylisoxazol-4-yl)-1-(1-(pyridin-2-yl)ethyl)-2-(trifluoromethyl)-1H-pyrrolo[3,2-b]pyridin-3-yl)-3-fluorobenzoic acid]
Second: COc1ccc(C(=O)O)cc1-c1c(C(F)(F)F)n([C@@H](C)c2ccccn2)c2cc(-c3c(C)noc3C)cnc12 [P-0239, (S)-3-(6-(3,5-dimethylisoxazol-4-yl)-1-(1-(pyridin-2-yl)ethyl)-2-(trifluoromethyl)-1H-pyrrolo[3,2-b]pyridin-3-yl)-4-methoxybenzoic acid]
The IC50 of the first is lower: 1 to 8 µM for the first, 8 to 1000 µM for the second. The first is the more potent here.

First: Cc1noc(C)c1-c1cnc2c(c1)c(-c1c(F)cc(C(=O)O)cc1OC(F)(F)F)cn2C(C1CC1)C1CC1 [P-0230, 4-(1-(dicyclopropylmethyl)-5-(3,5-dimethylisoxazol-4-yl)-1H-pyrrolo[2,3-b]pyridin-3-yl)-3-fluoro-5-(trifluoromethoxy)benzoic acid]
Second: Cc1noc(C)c1-c1cnc2c(c1)c(-c1ccc(C(=O)O)cc1OC(F)(F)F)cn2C(CC#N)C1CCCC1 (stereo not drawn) [P-0200, 4-(1-(2-cyano-1-cyclopentylethyl)-5-(3,5-dimethylisoxazol-4-yl)-1H-pyrrolo[2,3-b]pyridin-3-yl)-3-(trifluoromethoxy)benzoic acid]
The IC50 of the first is lower: 1 to 8 µM for the first, 8 to 1000 µM for the second.

CCOc1cc(C(=O)O)cc(OCC)c1-n1cc(-c2cncc(Cl)c2)c2ncc(-c3c(C)noc3C)cc21 [P-0193, 4-(3-(5-chloropyridin-3-yl)-6-(3,5-dimethylisoxazol-4-yl)-1H-pyrrolo[3,2-b]pyridin-1-yl)-3,5-diethoxybenzoic acid] and CCOc1cc(C(=O)O)cc(OCC)c1-n1cc(-c2cccnc2)c2ncc(-c3c(C)noc3C)cc21 [P-0173, 4-(6-(3,5-dimethylisoxazol-4-yl)-3-(pyridin-3-yl)-1H-pyrrolo[3,2-b]pyridin-1-yl)-3,5-diethoxybenzoic acid] fall in the same range of IC50: 1 to 8 µM for the first, 1 to 8 µM for the second.

First: Cc1noc(C)c1-c1cnc2c(c1)c(-c1ccc(C(=O)O)cc1OC(F)(F)F)cn2-c1ncccc1Cl [P-0183, 4-(1-(3-chloropyridin-2-yl)-5-(3,5-dimethylisoxazol-4-yl)-1H-pyrrolo[2,3-b]pyridin-3-yl)-3-(trifluoromethoxy)benzoic acid]
Second: Cc1noc(C)c1-c1cnc2c(c1)c(-c1ccc(C(=O)O)cc1OC(F)(F)F)cn2-c1ccnc(C(C)C)c1 [P-0203, 4-(5-(3,5-dimethylisoxazol-4-yl)-1-(2-isopropylpyridin-4-yl)-1H-pyrrolo[2,3-b]pyridin-3-yl)-3-(trifluoromethoxy)benzoic acid]
The IC50 of the first is higher: 8 to 1000 µM for the first, 1 to 8 µM for the second.

Cc1noc(C)c1-c1cnc2c(c1)c(-c1ccc(C(=O)O)cc1)cn2C(C)c1ncccn1 (stereo not drawn) [P-0013, 4-(5-(3,5-dimethylisoxazol-4-yl)-1-(1-(pyrimidin-2-yl)ethyl)-1H-pyrrolo[2,3-b]pyridin-3-yl)benzoic acid] and Cc1noc(C)c1-c1cnc2c(c1)c(-c1ccc(C(=O)O)cc1C#CC1CC1)cn2[C@@H](C)c1ccccn1 [P-0178, (S)-3-(cyclopropylethynyl)-4-(5-(3,5-dimethylisoxazol-4-yl)-1-(1-(pyridin-2-yl)ethyl)-1H-pyrrolo[2,3-b]pyridin-3-yl)benzoic acid] fall in the same range of IC50: 8 to 1000 µM for the first, 8 to 1000 µM for the second.

Cc1noc(C)c1-c1cnc2c(c1)c(-c1ccncc1)cn2C(c1ccccn1)C1CCCC1 (stereo not drawn) [P-0019, 4-(1-(cyclopentyl(pyridin-2-yl)methyl)-3-(pyridin-4-yl)-1H-pyrrolo[2,3-b]pyridin-5-yl)-3,5-dimethylisoxazole] and Cc1noc(C)c1-c1cnc2c(c1)c(-c1cccc(CC(=O)O)c1)cn2C(c1ccccn1)C1CCCC1 (stereo not drawn) [P-0018, 2-(3-(1-(cyclopentyl(pyridin-2-yl)methyl)-5-(3,5-dimethylisoxazol-4-yl)-1H-pyrrolo[2,3-b]pyridin-3-yl)phenyl)acetic acid] fall in the same range of IC50: 1 to 8 µM for the first, 1 to 8 µM for the second.

Compared with COc1cc(C(=O)O)cc(OC)c1-n1cc(-c2ccccc2)c2ncc(-c3c(C)noc3C)cc21 [P-0220, 4-(6-(3,5-dimethylisoxazol-4-yl)-3-phenyl-1H-pyrrolo[3,2-b]pyridin-1-yl)-3,5-dimethoxybenzoic acid], COc1cccc(OC)c1-n1cc(-c2ccccc2)c2ncc(-c3c(C)noc3C)cc21 [P-0221, 4-(1-(2,6-dimethoxyphenyl)-3-phenyl-1H-pyrrolo[3,2-b]pyridin-6-yl)-3,5-dimethylisoxazole] is higher in IC50: 0.0001 to 1 µM for the first, 8 to 1000 µM for the second.

First: CCOc1cc(C(=O)O)cc(OCC)c1-n1cc(-c2ccc(F)cc2F)c2ncc(-c3c(C)noc3C)cc21 [P-0186, 4-(3-(2,4-difluorophenyl)-6-(3,5-dimethylisoxazol-4-yl)-1H-pyrrolo[3,2-b]pyridin-1-yl)-3,5-diethoxybenzoic acid]
Second: CCOc1cc(C(=O)O)cc(OCC)c1-n1cc(-c2ccc(F)c(Cl)c2)c2ncc(-c3c(C)noc3C)cc21 [P-0209, 4-(3-(3-chloro-4-fluorophenyl)-6-(3,5-dimethylisoxazol-4-yl)-1H-pyrrolo[3,2-b]pyridin-1-yl)-3,5-diethoxybenzoic acid]
The IC50 of the first is higher: 8 to 1000 µM for the first, 1 to 8 µM for the second.

CCOc1cc(C(=O)O)cc(OCC)c1-n1cc(-c2ccc(C(=O)NC3CC3)cc2)c2ncc(-c3c(C)noc3C)cc21 [P-0218, 4-(3-(4-(cyclopropylcarbamoyl)phenyl)-6-(3,5-dimethylisoxazol-4-yl)-1H-pyrrolo[3,2-b]pyridin-1-yl)-3,5-diethoxybenzoic acid] and CCOc1cc(C(=O)O)cc(OCC)c1-n1cc(-c2ccnc(F)c2)c2ncc(-c3c(C)noc3C)cc21 [P-0222, 4-(6-(3,5-dimethylisoxazol-4-yl)-3-(2-fluoropyridin-4-yl)-1H-pyrrolo[3,2-b]pyridin-1-yl)-3,5-diethoxybenzoic acid] fall in the same range of IC50: 1 to 8 µM for the first, 1 to 8 µM for the second.

Cc1noc(C)c1-c1cnc2c(-c3ccccc3)cn(-c3c(Cl)cccc3C#N)c2c1 [P-0207, 3-chloro-2-(6-(3,5-dimethylisoxazol-4-yl)-3-phenyl-1H-pyrrolo[3,2-b]pyridin-1-yl)benzonitrile] and COc1ccc(C(=O)O)cc1-c1cn(C(C)(c2ccccn2)c2ccccn2)c2cc(-c3c(C)noc3C)cnc12 [P-0172, 3-(1-(1,1-di(pyridin-2-yl)ethyl)-6-(3,5-dimethylisoxazol-4-yl)-1H-pyrrolo[3,2-b]pyridin-3-yl)-4-methoxybenzoic acid] fall in the same range of IC50: 1 to 8 µM for the first, 1 to 8 µM for the second.

First: COc1ccncc1-n1cc(-c2ccc(C(=O)O)cc2OC(F)(F)F)c2cc(-c3c(C)noc3C)cnc21 [P-0176, 4-(5-(3,5-dimethylisoxazol-4-yl)-1-(4-methoxypyridin-3-yl)-1H-pyrrolo[2,3-b]pyridin-3-yl)-3-(trifluoromethoxy)benzoic acid]
Second: Cc1noc(C)c1-c1cnc2c(c1)c(-c1ccc(C(=O)O)cc1OC(F)(F)F)cn2C1CCS(=O)(=O)CC1 [P-0212, 4-(5-(3,5-dimethylisoxazol-4-yl)-1-(1,1-dioxidotetrahydro-2H-thiopyran-4-yl)-1H-pyrrolo[2,3-b]pyridin-3-yl)-3-(trifluoromethoxy)benzoic acid]
The IC50 of the first is lower: 1 to 8 µM for the first, 8 to 1000 µM for the second. The first is the more potent here.

Cc1noc(C)c1-c1cnc2c(c1)c(-c1ccc(C(=O)O)cc1OC(F)(F)F)cn2CCN1CCOCC1 [P-0191, 4-(5-(3,5-dimethylisoxazol-4-yl)-1-(2-morpholinoethyl)-1H-pyrrolo[2,3-b]pyridin-3-yl)-3-(trifluoromethoxy)benzoic acid] and Cc1noc(C)c1-c1cnc2c(-c3cc(F)cc(C(=O)O)c3)c(C(F)(F)F)n([C@@H](C)c3ccccn3)c2c1 [P-0240, (S)-3-(6-(3,5-dimethylisoxazol-4-yl)-1-(1-(pyridin-2-yl)ethyl)-2-(trifluoromethyl)-1H-pyrrolo[3,2-b]pyridin-3-yl)-5-fluorobenzoic acid] fall in the same range of IC50: 8 to 1000 µM for the first, 8 to 1000 µM for the second.

First: CCOc1cc(C(=O)O)cc(OCC)c1-n1cc(Cc2ccccn2)c2ncc(-c3c(C)noc3C)cc21 [P-0187, 4-(6-(3,5-dimethylisoxazol-4-yl)-3-(pyridin-2-ylmethyl)-1H-pyrrolo[3,2-b]pyridin-1-yl)-3,5-diethoxybenzoic acid]
Second: CCOc1cc(C(=O)O)cc(OCC)c1-n1cc(-c2cnc(OC)nc2)c2ncc(-c3c(C)noc3C)cc21 [P-0201, 4-(6-(3,5-dimethylisoxazol-4-yl)-3-(2-methoxypyrimidin-5-yl)-1H-pyrrolo[3,2-b]pyridin-1-yl)-3,5-diethoxybenzoic acid]
The IC50 of the first is higher: 8 to 1000 µM for the first, 1 to 8 µM for the second. The second is the more potent here.

First: CCOc1cc(C(=O)O)cc(OCC)c1-n1cc(CC2CCC2)c2ncc(-c3c(C)nnn3C)cc21 [P-0190, 4-(3-(cyclobutylmethyl)-6-(1,4-dimethyl-1H-1,2,3-triazol-5-yl)-1H-pyrrolo[3,2-b]pyridin-1-yl)-3,5-diethoxybenzoic acid]
Second: CCOc1cc(C(=O)O)cc(OCC)c1-n1cc(CC2CCC2)c2ncc(-c3c(COC)noc3C)cc21 [P-0210, 4-(3-(cyclobutylmethyl)-6-(3-(methoxymethyl)-5-methylisoxazol-4-yl)-1H-pyrrolo[3,2-b]pyridin-1-yl)-3,5-diethoxybenzoic acid]
The IC50 of the first is lower: 1 to 8 µM for the first, 8 to 1000 µM for the second. The first is the more potent here.

First: Cc1noc(C)c1-c1cnc2c(-c3cc(Cl)cc(C(=O)O)c3)c(C(F)(F)F)n([C@@H](C)c3ccccn3)c2c1 [P-0241, (S)-3-chloro-5-(6-(3,5-dimethylisoxazol-4-yl)-1-(1-(pyridin-2-yl)ethyl)-2-(trifluoromethyl)-1H-pyrrolo[3,2-b]pyridin-3-yl)benzoic acid]
Second: Cc1noc(C)c1-c1cnc2c(-c3cn(C)nc3C3CC3)c(C(F)(F)F)n([C@@H](C)c3ccccn3)c2c1 [P-0237, (S)-4-(3-(3-cyclopropyl-1-methyl-1H-pyrazol-4-yl)-1-(1-(pyridin-2-yl)ethyl)-2-(trifluoromethyl)-1H-pyrrolo[3,2-b]pyridin-6-yl)-3,5-dimethylisoxazole]
The IC50 of the first is higher: 8 to 1000 µM for the first, 1 to 8 µM for the second.
